One may read the solubility as how much of the substance goes into solution per volume. Low readings indicate little dissolved substance, high ones much dissolved substance.

We go through 5 molecules from PMC11997985, “Synthesis and In Vitro Profiling of Psilocin Derivatives: Improved Stability and Synthetic Properties” (Journal of Medicinal Chemistry, 2025).

A short description of data set [1]: Metabolic stability in human microsomes. To be noted: for Metabolic stability in human microsomes: 37 °C, 0.5 mg/mL protein, 1 μM compound, 1 mM NADPH; for Comment on microsome assay: Table S3. The data set is classed as in vitro ADME.
The nature of data set [2]: Co-factor experiment: microsome suspension with and without NADPH. The data set is classed as in vitro ADME, human. To be noted: for Co-factor experiment: degradation with and without addition of NADPH compared; for microsomal CLint: human, human microsome suspension, both with and without the addition of NADPH, read-out: intrinsic clearance. The method, then:
Therefore, additional experiments comparing stability with and without the addition of NADPH cofactor and a very short incubation period were performed (Tables S4 and S5). […] Due to the rapid observed degradation in microsomes, we decided to investigate the stability of five compounds in human plasma, aiming for a broad range of stabilities (Table 2, Table S6). It should be noted that esterase-labile compounds are notoriously difficult to study in microsomal stability studies.[36]
Table S3 Evaluation of metabolic stability in human microsomes
No. Metabolic stability Comment
4k <10/<10 Low retention in chromatography
8 <10/<10 Low retention in chromatography.
Table S4 Results from the modified microsome assay where degradation with and without the addition of NADPH was compared […]
4d Very low peak area for the first time point,
4e Very low peak area for the first time point,
4f Very low peak area for the first time point,
5 Very low peak area for the first time point,
8 No degradation without co -factor […]
metabolism by the microsomes (consisting mainly of cytochrome P450 enzymes) or if it was due to other factors, the compounds (with the exception of 4k) were incubated in the microsome suspension both with and without the addition of NADPH. Samples […]
were taken at three timepoints, and the degradation was compared to determine if it was dependent on NADPH. Compound 4k […]
without the addition of NADPH. […]
microsomes that need to be activated by a co -factor.
Table S5 Percent of peak area found in microsome suspension 15 seconds after the addition of NADPH in comparison with the same amount dissolved in H2O/EtOH
No. Area at 0.25 min. in Area in solution % found in microsomes/NADPH (125 nM) microsome
Comparison with compounds in solution. A comparison was made between the peak area of the compounds in solution with that obtained in the microsome suspension directly after the addition of NADPH (about 0.25 minutes) (Table S5). Before the addition of NADPH, the compounds are equilibrated in the microsome suspension for approximately five minutes. All compounds were prepared in solution by diluting a portion of the DMSO solutions with H2O/EtOH (75:25) to 125 nM (the final concentration of compounds for analysis in the microsome assay).
For the compounds where no results from the microsome assay could be reported due to low peak area (4d, 4e, 4f & 5), less than one percent of the expected peak area as compared with the area in solution was detected. […]
degrade rapidly before the addition of the co-factor after five minutes in incubation. For compounds 4g, 4h, 4i & 4j, which were […]
higher relative peak areas were found. […]
without NADPH was only found at 15% of the area seen in solution in the microsome suspension.

Data set [3] in a line: Plasma stability in human plasma. To be noted: for half-life at 1 μM / remaining at 12 s, 1 μM / remaining at 5 min, 1 μM / remaining at 10 min, 1 μM / remaining at 0.5 h, 1 μM / remaining at 1 h, 1 μM / remaining at 2 h, 1 μM / remaining at 4 h, 1 μM: human, pooled human plasma; for half-life at 1 μM: 37 °C, read-out: T ½ in human plasma; for remaining at 12 s, 1 μM: 0.2 min (first sample, reference); for remaining at 0.5 h, 1 μM: 30 min; for remaining at 1 h, 1 μM: 60 min; for remaining at 2 h, 1 μM: 120 min; for remaining at 4 h, 1 μM: 240 min; for degradation in human plasma: sampling at 5 min and later. The class given is in vitro ADME. The text has this: It should be noted that esterase-labile compounds are notoriously difficult to study in microsomal stability studies.[36]
Materials for experiments described in the supporting information (solubility) […]
Dimethylsulfoxide (DMSO) CHROMASOLV™ Plus, >99.7%
Acetonitrile (MeCN) LiChrosolv, hypergrade for LC-MS, Merck Chemicals
Formic acid (HCOOH) For LC-MS, Carlo-Erba
Water > 18MΩcm quality (Milli-Q, Millipore
Di-sodium-hydrogenphoshate dihydrate Merck
Sodium-dihydrogenphosphate monohydrate Merck
Autosampler Agilent 1260 Multisampler, G7167A
Gradient LC-pump Agilent 1260 Flexible Pump, G7104C
Analytical Flow 0.5 mL/min
Analytical column Luna® Omega 1.6 µm Polar C18 100Å, 50 x 2.1 mm
Injection volume 3.0 µL (15 µL for “high” injection of buffer sample) […]
Mobile phase A H2O/MeCN/Formic acid 95/5/0.1
Mobile phase B H2O/MeCN/Formic acid 5/95/0.1
Materials and analytical parameters for FT-ICR-MALDI-HRMS
The high-resolution mass spectrometry (HR-MS) experiments were performed using a MALDI-Fourier-transform ion cyclotron resonance (FTICR) (7T solariX XR-2ω, Bruker Daltonics) mass spectrometer equipped with a Smartbeam II 2 kHz laser. Briefly, a stock solution (1mg/ml) of the compound 5 was prepared and mixed 1:1 with a matrix solution containing DHB (40 mg/ml) in 50% ACN (0.02% TFA). 1 µl of the mixed solution was spotted onto MPTP MALDI target plate (Bruker Daltonics) and dried at room temperature. The instrument was tuned for optimal detection of small molecules (m/z 86–500) in positive polarity using the quadrature phase detection (QPD) (2ω) mode. The method was calibrated with red phosphorus over the mass range and DHB matrix ion [2M–2H2O+H]+ m/z 273.039364 was used as lock mass.
Incubation samples. 10 mM stock solutions of test compounds in DMSO were used to prepare 100 μM solutions by dilution in EtOH/water 25/75 (v/v). 6 μL of the 100 μM solution was spiked into 594 μL pre-warmed plasma at 37 °C giving a final concentration of 1 μM. The incubation tube was then mixed on a vortex. A sample (60 μL) was taken and added to an Eppendorf tube containing 180 μL acetonitrile. The tube was thoroughly mixed with a vortex. The precipitated sample was then treated with centrifugation (10.000 g, 10 minutes, 18 °C), 150 μL of the supernatant was mixed with 450 μL water directly into a LC-vial (glass). This step was repeated for every time point. The first time point was approximately taken 15-20 seconds after spiking.
Other timepoints were 5,10, 30, 60, 120, 240 minutes. Pre-precipitated samples. 594 μL of pre-warmed plasma was precipitated with 1800 μL ACN. 6 μL of the 100 μM solution was spiked into the precipitated plasma. 1 mL was removed and added to an Eppendorf tube. After a centrifugation step (10.000 g, 10 minutes, 18 °C), 150 μL of the supernatant was mixed with 450 μL water directly into a LC-vial (glass).
Metabolic stability in human microsomes
The assay was run at 37°C with a microsomal protein concentration of 0.5 mg/mL and a compound concentration of 1 μM in a 0.1 M potassium phosphate buffer at pH 7.4. The compounds were added to the microsome suspension whereafter the enzymatic reaction was initiated by the addition of the co-factor NADPH, giving a final NADPH concentration of 1 mM (Table 9). Samples […]
Plasma stability. The compounds were incubated separately at a concentration of 1 μM in +37°C pre-warmed pooled human plasma from commercial resources. The incubations were performed over a four-hour period with the first sample taken after addition of the compounds to plasma followed by a thorough mixing, with further sampling at 5, 10, and 30 minutes as well as 1,

The conditions of data set [4]: mice dosed with psilocybin or 4-AcO–DMT; cited from earlier work.
Data set [5] in a line: Solid solubility assay, phosphate buffer pH 7.4. The class given is physicochemical. To be noted: phosphate buffer pH 7.4, dry substance.

Where “and” joins values, the source holds several entries; their conditions need not be identical. Equal values may be shown once. Marks after values point to notes of the source that are not given here.

For the molecule `CN(C)CCc1c[nH]c2cccc(OCc3ccccc3)c12` [Compound 3, 4-Benzyloxy-N,N-dimethyltryptamine], the “Metabolic stability in human microsomes” value in data set [1] is 43 μL/min/mg protein and 44 μL/min/mg protein. In addition, in data set [2], the Co-factor experiment entry is reported as “No degradation without co-factor”. In addition, in data set [3], the half-life at 1 μM is above 480 min; the amount remaining at 12 s, 1 μM stood at 100%; the fraction remaining at 5 min, 1 μM worked out at 103%; the amount remaining at 10 min, 1 μM was 103%. In data set [3], the fraction remaining at 0.5 h, 1 μM was determined as 105%; the share remaining at 1 h, 1 μM turned out to be 111%; the fraction remaining at 2 h, 1 μM is 110%; the fraction remaining at 4 h, 1 μM is 107%. Moreover, the “degradation in human plasma” value in data set [3] was “no degradation was observed”.

For `CC(=O)Oc1cccc2[nH]cc(CCN(C)C)c12.O=C(O)/C=C/C(=O)O` [Compound 4a, 4-acetoxy-N,N-dimethyltryptamine], the “psilocin exposure compared with psilocybin” value in data set [4] is on record as “nonsignificant difference in psilocin exposure”. For the same molecule, in data set [1], the “Metabolic stability in human microsomes” value is >200^a μL/min/mg protein and >200 μL/min/mg protein; the “Comment on microsome assay” value was “Rapid degradation”. Further, in data set [2], the Co-factor experiment entry is “Degradation without co-factor” and the microsomal CLint was above 200 µL/min/mg. In addition, in data set [3], the half-life at 1 μM was below 5 min; the fraction remaining at 12 s, 1 μM was found to be 100%; the amount remaining at 5 min, 1 μM was determined as 0.2%; the share remaining at 10 min, 1 μM is 0.2%. For the same molecule, in data set [3], the amount remaining at 0.5 h, 1 μM stood at 0.2%; the share remaining at 1 h, 1 μM came to 0.2%; the share remaining at 2 h, 1 μM worked out at 0.1%; the share remaining at 4 h, 1 μM was 0.2%. Also, in data set [3], the “degradation in human plasma” value is “almost no compound remained”.

`CN(C)CCc1c[nH]c2cccc(OC(=O)C3CC3)c12.O=C(O)/C=C/C(=O)O` [Compound 4g]: in data set [1], the “Metabolic stability in human microsomes” value is >200^a μL/min/mg protein and >200 μL/min/mg protein; the “Comment on microsome assay” value was “Rapid degradation”. Further, in data set [2], the Co-factor experiment entry was “Degradation without co-factor” and the microsomal CLint is above 200 µL/min/mg. Moreover, in data set [3], the half-life at 1 μM is below 5 min; the amount remaining at 12 s, 1 μM worked out at 100%; the amount remaining at 5 min, 1 μM is 1.5%; the fraction remaining at 10 min, 1 μM was determined as 0.1%. Moreover, in data set [3], the fraction remaining at 0.5 h, 1 μM worked out at 0%; the amount remaining at 1 h, 1 μM was found to be 0%; the amount remaining at 2 h, 1 μM was 0%; the amount remaining at 4 h, 1 μM was 0%. In addition, the “degradation in human plasma” value in data set [3] is listed as “almost no compound remained”.

Regarding `CCOC(=O)Oc1cccc2[nH]cc(CCN(C)C)c12.O=C(O)/C=C/C(=O)O` [Compound 4i], in data set [1], the “Metabolic stability in human microsomes” value is >200^a μL/min/mg protein and >200 μL/min/mg protein; the “Comment on microsome assay” value was “Rapid degradation”. For the same molecule, in data set [2], the Co-factor experiment result was “Degradation without co-factor” and the microsomal CLint was above 200 µL/min/mg. In data set [3], the half-life at 1 μM was below 5 min; the share remaining at 12 s, 1 μM stood at 100%; the fraction remaining at 5 min, 1 μM was determined as 0%; the amount remaining at 10 min, 1 μM came out at 0%. Also, in data set [3], the amount remaining at 0.5 h, 1 μM stood at 0%; the amount remaining at 1 h, 1 μM was found to be 0%; the fraction remaining at 2 h, 1 μM stood at 0%; the amount remaining at 4 h, 1 μM is 0%. In addition, in data set [3], the “degradation in human plasma” value was “almost no compound remained”.

Regarding `CN(C)CCc1c[nH]c2cccc(OP(=O)(O)O)c12` [Compound 8, 4-phosphoryloxy-N,N-dimethyltryptamine, reference compound], the “Metabolic stability in human microsomes” value in data set [1] was <10/<10^b μL/min/mg protein and <10 μL/min/mg protein. For the same molecule, the Co-factor experiment entry in data set [2] is “No degradation without co-factor”. For the same molecule, in data set [5], the solubility at 24 h was above 1000 µM. In data set [3], the half-life at 1 μM was above 480 min; the amount remaining at 12 s, 1 μM amounted to 100%; the amount remaining at 5 min, 1 μM was determined as 135%; the share remaining at 0.5 h, 1 μM stood at 130%. Also, in data set [3], the share remaining at 1 h, 1 μM is 122%; the fraction remaining at 2 h, 1 μM is 127%; the share remaining at 4 h, 1 μM was 122%; the “degradation in human plasma” value is reported as “no degradation was observed”.
